Data published in the NIST ThermoML archive (doi:10.1016/j.fluid.2018.06.003).
± gives the expanded uncertainty stated by the source.

What was measured:
[1] = refractive index (Na D-line) (dimensionless); xn = mol fraction of the nth substance listed; details: 298.15 K; 101 kPa; Liquid; Standard Abbe refractometry; x1 = 0.3336
[2] = xn = mol fraction of the nth substance listed; details: 298.15 K; 101 kPa; Liquid; Vibrating tube method; x1 = 0.3336

## C[N+](C)(C)C.[Cl-] [tetramethylammonium chloride] + OCC(O)CO
[1]
  refractive index: 1.47183 ± 0.00044
[2]
  mass density: 1145.22 ± 2.1 kg/m3
